Earlier results in patent US20260033492A1, “Pest Repellents and Uses Thereof” (priority 2020, published 2026).

Assays:
acetylcholinesterase = acetylcholinesterase (Homo sapiens, UniProt P22303); conditions: in humans
[1] = in vivo
salamander larvae = conditions: in vivo
insects = conditions: in vivo

acetylcholinesterase, sequence (P22303 32-614): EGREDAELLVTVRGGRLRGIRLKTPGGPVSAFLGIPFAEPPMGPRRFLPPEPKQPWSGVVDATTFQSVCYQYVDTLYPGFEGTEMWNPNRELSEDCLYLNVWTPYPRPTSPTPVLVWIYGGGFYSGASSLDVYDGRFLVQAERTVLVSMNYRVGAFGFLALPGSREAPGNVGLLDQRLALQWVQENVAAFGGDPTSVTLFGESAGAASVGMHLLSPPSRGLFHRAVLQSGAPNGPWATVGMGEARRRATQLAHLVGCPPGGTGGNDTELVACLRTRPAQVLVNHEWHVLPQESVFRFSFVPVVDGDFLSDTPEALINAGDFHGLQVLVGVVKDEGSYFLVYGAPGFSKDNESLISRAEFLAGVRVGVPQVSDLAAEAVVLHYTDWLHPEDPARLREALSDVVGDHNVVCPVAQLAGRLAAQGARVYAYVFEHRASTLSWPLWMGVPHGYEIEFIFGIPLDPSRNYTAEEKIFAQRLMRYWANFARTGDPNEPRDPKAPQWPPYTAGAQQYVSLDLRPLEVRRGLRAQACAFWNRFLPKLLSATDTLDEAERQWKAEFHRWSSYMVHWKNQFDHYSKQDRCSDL

| SMILES | inhibition of acetylcholinesterase (acetylcholinesterase) | irritancy / skin reactions [1] | toxicity to salamander larvae (salamander larvae) | effectiveness at repelling insects relative to DEET (insects) |
| --- | --- | --- | --- | --- |
| CCN(CC)C(=O)c1cccc(C)c1 [DEET, N,N-diethyl-meta-toluamide] | inhibit acetylcholinesterase | act as an irritant |  |  |
| CCC(C)OC(=O)N1CCCCC1CCO (stereo not shown) [Icaridin] |  |  | toxic to salamander larvae | as effective as DEET |
